According to ChEMBL document CHEMBL1133713, “Novel 1,5-diphenylpyrazole nonnucleoside HIV-1 reverse transcriptase inhibitors with enhanced activity versus the delavirdine-resistant P236L mutant: lead identification and SAR of 3- and 4-substituted derivatives” (J Med Chem, 2000):
Counter-ions that a name gives are not always drawn. One block for each compound: values may come before it.

Columns and labels:
[1] = Cytotoxic concentration was determined; format: functional
[2] = Effective dose for inhibition of viral replication in cell culture […]; format: functional; conditions: read-out: ED50 (the source's name)
[3] = system: Human immunodeficiency virus type 1 reverse transcriptase (Human immunodeficiency virus 1), Q72547 [P236L]; experiment: In vitro inhibition of mutant P236L reverse transcriptase at a concentration of 1 uM.
[4] = system: Human immunodeficiency virus type 1 reverse transcriptase (Human immunodeficiency virus 1), Q72547 [P236L]; experiment: In vitro inhibition of mutant P236L reverse transcriptase at a concentration of 10 uM.
[5] = system: Human immunodeficiency virus type 1 reverse transcriptase (Human immunodeficiency virus 1), Q72547 [P236L]; experiment: In vitro Inhibition of mutant P236L reverse transcriptase at a concentration of 50 uM.
[6] = biological target: Human immunodeficiency virus type 1 reverse transcriptase (Human immunodeficiency virus 1) (UniProt Q72547); experiment: In vitro inhibition of wild type resistant reverse transcriptase at a concentration of 10 uM.
[7] = biological target: Human immunodeficiency virus type 1 reverse transcriptase (Human immunodeficiency virus 1) (UniProt Q72547); experiment: In vitro inhibition of wild type resistant reverse transcriptase at a concentration of 50 uM.
[8] = biological target: Human immunodeficiency virus type 1 reverse transcriptase (Human immunodeficiency virus 1) (UniProt Q72547); experiment: In vitro inhibition of wild type resistant reverse transcriptase at a concentration of 1 uM.
[9] = biological target: Human immunodeficiency virus type 1 reverse transcriptase (Human immunodeficiency virus 1, UniProt Q72547, P236L); experiment: In vitro ability to inhibit mutant P236L reverse transcriptase
[10] = biological target: Human immunodeficiency virus type 1 reverse transcriptase (Human immunodeficiency virus 1, UniProt Q72547); experiment: In vitro ability to inhibit wild type resistant (WT) reverse transcriptase

EC50 [2]: < 0.1 nM
Compound: CCc1cc(NCc2nc3c(Cl)ccc(Cl)c3o2)c(O)nc1C [L-697661]
CC50 [1]: > 10 µM

Compound: C=Cc1c(C)nn(-c2ccccc2)c1-c1ccccc1
inhibition [3]: 21% | inhibition [4]: 26% | inhibition [5]: 59% | inhibition [6]: 10% | inhibition [7]: 18% | inhibition [8]: 3.6%

Compound: CC#Cc1c(C)nn(-c2ccccc2)c1-c1ccccc1
IC50 [9]: 1540 nM | IC50 [10]: 13.4 µM | inhibition [3]: 38% | inhibition [4]: 80% | inhibition [5]: 93% | inhibition [6]: 37% | inhibition [7]: 72% | inhibition [8]: 0%

Compound: Cc1nn(-c2ccccc2)c(-c2ccccc2)c1CC#N
CC50 [1]: > 10 µM | EC50 [2]: 100 nM | IC50 [9]: 1140 nM | IC50 [10]: 2.31 µM | inhibition [3]: 47% | inhibition [4]: 77% | inhibition [5]: 93% | inhibition [6]: 71% | inhibition [7]: 90% | inhibition [8]: 37%

Compound: C/N=C(/S)c1c(C)nn(-c2ccccc2)c1-c1ccccc1
inhibition [3]: 0% | inhibition [4]: 0% | inhibition [5]: 0% | inhibition [6]: 0% | inhibition [7]: 0% | inhibition [8]: 0%

Compound: CCc1c(CCOC)nn(-c2ccccc2)c1-c1ccccc1
inhibition [3]: 15% | inhibition [4]: 47% | inhibition [5]: 71% | inhibition [6]: 29% | inhibition [7]: 33% | inhibition [8]: 22%

Compound: CCc1c(CC(=O)NC)nn(-c2ccccc2)c1-c1ccccc1
inhibition [3]: 6% | inhibition [4]: 8% | inhibition [5]: 12% | inhibition [6]: 3% | inhibition [7]: 7% | inhibition [8]: 1%

Compound: Cc1nn(-c2ccccc2)c(-c2ccccc2)c1CC(=O)O
inhibition [3]: 0% | inhibition [4]: 0% | inhibition [5]: 0% | inhibition [6]: 0% | inhibition [7]: 3% | inhibition [8]: 0%

Compound: Cc1nn(-c2ccccc2)c(-c2ccccc2)c1C(=O)O
inhibition [3]: 0% | inhibition [4]: 1% | inhibition [5]: 4% | inhibition [6]: 0% | inhibition [7]: 1% | inhibition [8]: 4%

Compound: CCc1c(CCO)nn(-c2ccccc2)c1-c1ccccc1
IC50 [9]: 650 nM | IC50 [10]: > 50 µM | inhibition [3]: 58% | inhibition [4]: 84% | inhibition [5]: 95% | inhibition [6]: 18% | inhibition [7]: 42% | inhibition [8]: 0%

Compound: CCc1c(CC(N)=O)nn(-c2ccccc2)c1-c1ccccc1
inhibition [3]: 16% | inhibition [4]: 29% | inhibition [5]: 52% | inhibition [6]: 18% | inhibition [7]: 39% | inhibition [8]: 12%

Compound: Cc1nn(-c2ccccc2)c(-c2ccccc2)c1CC(N)=O
inhibition [3]: 0% | inhibition [4]: 0% | inhibition [5]: 29% | inhibition [6]: 36% | inhibition [7]: 48% | inhibition [8]: 11%

Compound: COCc1c(C)nn(-c2ccccc2)c1-c1ccccc1
inhibition [3]: 0% | inhibition [4]: 18% | inhibition [5]: 50% | inhibition [6]: 0% | inhibition [7]: 14% | inhibition [8]: 0%

Compound: CCCc1c(C)nn(-c2ccccc2)c1-c1ccccc1
inhibition [3]: 4% | inhibition [4]: 56% | inhibition [5]: 71% | inhibition [6]: 31% | inhibition [7]: 49% | inhibition [8]: 14%

Compound: CCc1c(C)nn(-c2ccccc2)c1-c1ccccc1
IC50 [9]: 520 nM | IC50 [10]: 14.5 µM | inhibition [3]: 50% | inhibition [4]: 81% | inhibition [5]: 94% | inhibition [6]: 42% | inhibition [7]: 67% | inhibition [8]: 1%

Compound: Cc1ccnc2c1NC(=O)c1cccnc1N2C1CC1 [NEVIRAPINE]
CC50 [1]: > 10 µM | EC50 [2]: 10 nM

EC50 [2]: 0.1 nM
Compound: CC(C)Nc1cccnc1N1CCN(C(=O)c2cc3cc(NS(C)(=O)=O)ccc3[nH]2)CC1 [DELAVIRDINE MESYLATE]
CC50 [1]: > 10 µM

Compound: CNC(=O)c1c(C)nn(-c2ccccc2)c1-c1ccccc1
inhibition [3]: 15% | inhibition [4]: 0% | inhibition [5]: 0% | inhibition [6]: 7% | inhibition [7]: 3% | inhibition [8]: 5%

Compound: Cc1nn(-c2ccccc2)c(-c2ccccc2)c1CCO
inhibition [3]: 12% | inhibition [4]: 8% | inhibition [5]: 28% | inhibition [6]: 0% | inhibition [7]: 0% | inhibition [8]: 0%

Compound: CCc1c(CC(=O)OC)nn(-c2ccccc2)c1-c1ccccc1
inhibition [3]: 21% | inhibition [4]: 41% | inhibition [5]: 55% | inhibition [6]: 20% | inhibition [7]: 34% | inhibition [8]: 5%

Compound: CCc1c(CC(=O)O)nn(-c2ccccc2)c1-c1ccccc1
inhibition [3]: 0% | inhibition [4]: 13% | inhibition [5]: 14% | inhibition [6]: 0% | inhibition [7]: 0% | inhibition [8]: 0%

Compound: Cc1nn(-c2ccccc2)c(-c2ccccc2)c1C
inhibition [3]: 0% | inhibition [4]: 3% | inhibition [5]: 36% | inhibition [6]: 0% | inhibition [7]: 0% | inhibition [8]: 0%

Compound: CCc1c(CC#N)nn(-c2ccccc2)c1-c1ccccc1
inhibition [3]: 14% | inhibition [4]: 46% | inhibition [5]: 72% | inhibition [6]: 15% | inhibition [7]: 39% | inhibition [8]: 2%

Compound: Cc1nn(-c2ccccc2)c(-c2ccccc2)c1C(C)C
inhibition [3]: 0% | inhibition [4]: 8% | inhibition [5]: 13% | inhibition [6]: 18% | inhibition [7]: 6% | inhibition [8]: 0%
